Reference: patent US20180099917A1, “REVERSIBLY REDUCIBLE MATERIALS AND USE THEREOF” (University of Kentucky Research Foundation, priority 2016, published 2018)
In brackets after ≈: the same amount, converted by molar mass. Read-outs that look alike come from different tables or passages of the source.

Key:
[1] = Solubility in acetonitrile; type: physicochemical
Procedure: In some embodiments, modifying the Z group in formula I above adjusts the solubility of the resulting compound. For example, in one embodiment, compound number 1 has a solubility of 0.1 M in acetonitrile (electrolyte solution), while compound number 2 has a solubility of 0.3 M in acetonitrile.
(§1) Following the formation of reversibly reducible materials as discussed above, various compounds were tested for structure, solubility, and reduction potentials. The results are provided in Table 2 below, with solubility shown in acetonitrile at 23° C. and reduction potentials shown versus ferrocene.

[2] = Reduction potentials versus ferrocene (electrochemistry in acetonitrile); type: physicochemical; details: for First Reduction / Second Reduction: reduction potential versus ferrocene
Excerpt: The reversibly reducible material according to one or more of the embodiments disclosed herein is soluble in at least one solvent for redox flow batteries. Accordingly, also provided herein is a negolyte for use in redox-flow batteries, the negolyte including the reversibly reducible material and a redox flow battery solvent. Such solvents include, but are not limited to, acetonitrile, propylene glycol, propylene carbonate, dimethyl acetamide, and dimethyl formamide. […] In some embodiments, the negolyte also includes an electrolyte. Suitable electrolytes include, but are not limited to, tetraalkylammonium hexafluorophosphate, perchlorate, tetrafluoroborate, triflate, perfluorobutylsulfonate, lithium salts thereof (e.g., lithium hexafluorophosphate or perchlorate), other organic-soluble materials, any other suitable electrolyte, or a combination thereof. Other suitable electrolytes include, but are not limited to, sulfuric acid and/or potassium hydroxide. An example of the electrochemical trace, with internal ferrocene standard in acetonitrile using tetrabutylammonium hexafluorophosphate electrolyte, is shown in FIG. 1. Although discussed above with regard to non-aqueous redox flow batteries, as will be appreciated by those skilled in the art the instant disclosure is not so limited and may include aqueous redox flow batteries as well.
as §1

[3] = acetonitrile (electrolyte solution), organic solvent or mixture, read-out: solubility in acetonitrile
[4] = organic solvent or mixture, in acetonitrile at 23° C., read-out: Solubility

Structure (SMILES) | solubility ([1]; in acetonitrile at 23° C.) | First Reduction [2] [V] | Second Reduction [2] [V] | solubility [1, 3] [mM] | solubility [1, 4] [mM] | solubility compared to compound 2 ([1]; Cl at the R5 position versus identical compound without Cl) | electrochemistry properties ([2]; second group on the N atom)
CCN(CC)C1=CC(=O)c2ccccc2C1=O [Compound 11] |  | −1.362 | −1.686 | 700 (≈ 160 mg/mL) | 700 (≈ 160 mg/mL) |  | excellent electrochemistry properties
COCCN(CCOC)C1=CC(=O)c2ccccc2C1=O | Miscible | −1.295 | -1.67 |  |  |  | 
COCCNC1=C(Cl)C(=O)c2ccccc2C1=O [Compound 10] |  |  |  |  |  | increases the solubility | 

Continued, in another order:

solubility ([1]; in acetonitrile at 23° C.) | First Reduction [2] [V] | Second Reduction [2] [V] | solubility [1, 3] [mM] | solubility [1, 4] [mM] | solubility compared to compound 2 ([1]; Cl at the R5 position versus identical compound without Cl) | Structure (SMILES) | electrochemistry properties ([2]; second group on the N atom)
Miscible | −1.295 | −1.784 |  |  |  | COCCOCCOCCNC1=CC(=O)c2ccccc2C1=O | 
 | −1.316 | −1.798 | 300 (≈ 69.4 mg/mL) | 300 (≈ 69.4 mg/mL) |  | COCCNC1=CC(=O)c2ccccc2C1=O [Compound 2] | 
 | −1.266 | −1.841 | 100 (≈ 22.9 mg/mL) | 100 (≈ 22.9 mg/mL) |  | CC(C)CNC1=CC(=O)c2ccccc2C1=O [Compound 1] | 
